Several values for one entry are separate records, joined by “and”; a condition that tells them apart may be missing. Equal values may be shown once. Read-outs that look alike come from different tables or passages of the source.

Type in all cases: biochemical
The target of one test is JNK3 (Homo sapiens, UniProt P53779). Put plainly: JNK3 kinase DELFIA (phosphorylation of biotinylated GST-ATF2). As to conditions: final ATP 2 uM. The protocol:
(§1) Before initiation of kinase reactions, compounds were pre-incubated with the enzyme for 10 minutes. Pre-incubation reactions contained 50 mM HEPES pH 7.3, 10 mM MgCl2, 1 mM DTT, 75 mM NaCl, 1 mM EDTA, 1 mM EGTA, 0.01% CHAPS, 2 nM JNK1, 6 ug/mL biotinylated GST-ATF2, 0.1 mg/ml BSA, 5% DMSO and 0-100 μM compound in a total volume of 40 μL. After a 10 minute room temperature pre-incubation, 10 μL of 35 μM ATP was added to start the reaction (final concentration of ATP=7 uM). Reactions were incubated at room temperature for 30 minutes. A small aliquot (10 uL) was taken and quenched by adding into 190 uL of DELFIA Assay buffer containing 100 mM EDTA. The amount of phosphate transferred to biotinylated GST-ATF2 was measured using the Dissociation Enhanced Lanthanide Fluorescence Immuno-assay (DELFIA) from Perkin Elmer according to manufacturers protocol. Briefly, biotinylated GST-ATF2 was captured on streptavidin coated plates for 1 hour, washed twice, then incubated for 1 hour with a 1:1000 dilution of rabbit-anti-phospho-ATF2 antibody and a 1:3500 dilution of Europium-labeled anti-rabbit secondary antibody. Free antibody was removed with six washes, Europium was dissociated from the antibody, and Europium fluorescence was measured using an excitation wavelength of 340 nm and an emission wavelength of 615 nm. JNK2 and JNK3 kinase reactions were carried out similarly, with the exception that the final concentration of ATP was 4 uM and 2 uM, respectively.

The next test concerns the target JNK2 (Homo sapiens, UniProt P45984). The experiment in a line: JNK2 kinase DELFIA (phosphorylation of biotinylated GST-ATF2). As to conditions: final ATP 4 uM, reported as range for a group. Here is the method:
as §1

Another test concerns the target JNK1 (Homo sapiens, UniProt P45983). The experiment in a line: JNK1 kinase DELFIA (phosphorylation of biotinylated GST-ATF2). The protocol:
as §1

Where [1] appears, read: DELFIA, 2 nM JNK1, final ATP 7 uM, 10 min pre-incubation, reported as range for a group.

JNK2, sequence (P45984 whole entry, species assumed): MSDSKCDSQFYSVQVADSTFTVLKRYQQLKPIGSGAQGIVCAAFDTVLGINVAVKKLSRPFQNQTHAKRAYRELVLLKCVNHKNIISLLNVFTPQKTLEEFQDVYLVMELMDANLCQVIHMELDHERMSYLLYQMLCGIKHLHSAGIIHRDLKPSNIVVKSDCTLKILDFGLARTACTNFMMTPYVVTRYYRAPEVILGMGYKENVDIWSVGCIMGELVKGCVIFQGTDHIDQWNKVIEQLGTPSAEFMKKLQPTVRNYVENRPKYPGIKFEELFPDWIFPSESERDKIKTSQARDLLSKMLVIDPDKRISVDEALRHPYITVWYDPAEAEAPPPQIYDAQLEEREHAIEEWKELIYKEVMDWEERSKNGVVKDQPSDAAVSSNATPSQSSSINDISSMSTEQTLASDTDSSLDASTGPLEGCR
JNK3, sequence (P53779 whole entry, species assumed): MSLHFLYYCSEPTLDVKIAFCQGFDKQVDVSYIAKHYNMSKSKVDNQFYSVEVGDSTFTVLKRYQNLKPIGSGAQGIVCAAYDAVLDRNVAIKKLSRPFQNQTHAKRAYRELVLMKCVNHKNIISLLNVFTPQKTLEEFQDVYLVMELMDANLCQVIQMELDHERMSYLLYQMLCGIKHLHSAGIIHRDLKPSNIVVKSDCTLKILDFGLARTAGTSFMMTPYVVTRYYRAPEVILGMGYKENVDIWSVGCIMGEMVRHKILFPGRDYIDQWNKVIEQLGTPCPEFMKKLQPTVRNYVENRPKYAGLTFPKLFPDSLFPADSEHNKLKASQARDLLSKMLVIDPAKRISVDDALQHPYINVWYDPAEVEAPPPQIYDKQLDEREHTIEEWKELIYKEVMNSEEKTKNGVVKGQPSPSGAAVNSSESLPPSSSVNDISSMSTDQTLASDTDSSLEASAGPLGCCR
JNK1, sequence (P45983 whole entry, species assumed): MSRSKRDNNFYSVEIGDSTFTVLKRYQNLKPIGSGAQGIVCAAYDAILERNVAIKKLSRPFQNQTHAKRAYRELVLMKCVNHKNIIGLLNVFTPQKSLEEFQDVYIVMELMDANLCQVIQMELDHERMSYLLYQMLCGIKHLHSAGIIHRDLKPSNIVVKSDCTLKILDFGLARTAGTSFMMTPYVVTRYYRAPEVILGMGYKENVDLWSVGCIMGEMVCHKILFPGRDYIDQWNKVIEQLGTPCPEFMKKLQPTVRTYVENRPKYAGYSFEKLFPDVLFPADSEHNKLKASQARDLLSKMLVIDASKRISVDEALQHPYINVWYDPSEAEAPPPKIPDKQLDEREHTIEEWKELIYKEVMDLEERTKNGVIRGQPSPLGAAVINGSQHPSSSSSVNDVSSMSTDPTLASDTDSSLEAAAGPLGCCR

The term IC50 denotes the concentration needed to halve the response being measured. On to `CC[C@@H](CO)NC(=O)c1c(-c2ccsc2)nc2c(C(=O)NCc3ccc4nc(N)sc4c3)cccn12` [Compound 13], for which the IC50 against JNK3 lay within 54 to 98 nM; on JNK2, 201 to 666 nM.
Regarding `CC(C)C[C@@H](CO)NC(=O)c1c(-c2ccsc2)nc2c(C(=O)NCc3ccc4nc(N)sc4c3)cccn12` [Compound 14], the IC50 against JNK1 (setting [1]) is 6 to 100 nM and 6 to 20 nM; against JNK3, 9 to 50 nM; against JNK2 it was 4 to 46 nM.
For `Nc1nc2ccc(CNC(=O)c3cccn4c(C(=O)NCC5(O)CCCCC5)c(-c5ccsc5)nc34)cc2s1` [Compound 15], the IC50 on JNK3 is 118 to 174 nM; at JNK2, 107 to 173 nM.
The like results for `C[C@H](CO)NC(=O)c1c(-c2ccsc2)nc2c(C(=O)NCc3ccc4nc(N)sc4c3)cccn12` [Compound 23] were, in that order, 118 to 174 nM and 107 to 173 nM.
For `CC(C)CNC(=O)c1c(-c2ccsc2)nc2c(C(=O)NCc3ccc4nc(N)sc4c3)cccn12` [Compound 38], in that order: 54 to 98 nM and 201 to 666 nM.
The like results for `C[C@@H](NC(=O)c1c(-c2ccsc2)nc2c(C(=O)NCc3ccc4nc(N)sc4c3)cccn12)c1ccccc1` [Compound 42] were, in that order, 118 to 174 nM and 52 to 94 nM.
Turning to `C[C@@H](NC(=O)c1c(-c2ccsc2)nc2c(C(=O)NCc3ccc4nc(N)sc4c3)cccn12)[C@@H](O)c1ccccc1` [Compound 62], the IC50 is 54 to 98 nM against JNK3 and 107 to 173 nM against JNK2.
Turning to `CC(C)C[C@@H](CO)NC(=O)c1c(-c2ccsc2)nc2c(C(=O)NCc3ccc4nc[nH]c4c3)cccn12` [Compound 111], the IC50 on JNK3 fell in the range of 54 to 98 nM; at JNK2, 52 to 94 nM.
For `CC(C)C[C@@H](CO)NC(=O)c1c(-c2ccsc2)nc2c(C(=O)NCc3ccc4ncsc4c3)cccn12` [Compound 113], in that order: 54 to 98 nM and 52 to 94 nM.
For `CC(C)C[C@@H](CO)NC(=O)c1c(-c2ccsc2)nc2c(C(=O)NCc3ccc4ncccc4c3)cccn12` [Compound 115], in that order: 9 to 50 nM and 4 to 46 nM.
For `CNc1nc2ccc(CNC(=O)c3cccn4c(C(=O)N[C@H](CO)CC(C)C)c(-c5ccsc5)nc34)cc2s1` [Compound 155], in that order: 9 to 50 nM and 4 to 46 nM.
Consider `CC[C@H](CO)NC(=O)c1c(-c2ccsc2)nc2c(C(=O)N[C@@H](C)c3ccc(S(C)(=O)=O)cc3)cccn12` [Compound 170], for which the values for the IC50 at JNK3 and against JNK2 were 118 to 174 nM and 1070 to 11500 nM, respectively.
For `CC[C@@H](CO)NC(=O)c1c(-c2ccsc2)nc2c(C(=O)NCc3ccc(-n4nccc4C(C)C)cc3)cccn12` [Compound 178], in that order: 209 to 479 nM and 201 to 666 nM.
For `CC[C@@H](CO)NC(=O)c1c(-c2ccsc2)nc2c(C(=O)NCc3ccc(Cl)nc3)cccn12` [Compound 181], in that order: 118 to 174 nM and 201 to 666 nM.
Consider `CC(C)C[C@H](CO)NC(=O)c1c(-c2ccsc2)nc2c(C(=O)NCc3ccc(S(C)(=O)=O)cc3)cccn12` [Compound 205], for which the half-inhibitory concentration (IC50) against JNK3 was in the range of 54 to 98 nM; against JNK2 it was 52 to 94 nM.
The like results for `CC(C)C[C@@H](CO)NC(=O)c1c(-c2ccsc2)nc2c(C(=O)NCc3ccc(N4CCCC4=O)cc3)cccn12` [Compound 206] were, in that order, 54 to 98 nM and 52 to 94 nM.
For the molecule `CC(C)C[C@@H](CO)NC(=O)c1c(-c2ccsc2)nc2c(C(=O)NCc3ccc(-c4ccccn4)s3)cccn12` [Compound 215], the IC50 was in the range of 9 to 50 nM against JNK3 and 52 to 94 nM at JNK2.
For the molecule `CC(C)C[C@@H](CO)NC(=O)c1c(-c2ccsc2)nc2c(C(=O)NCC3CCN(C(=O)c4cccnc4)CC3)cccn12` [Compound 230], the IC50 was 209 to 479 nM against JNK3 and 201 to 666 nM on JNK2.
`CC(C)C[C@@H](CO)NC(=O)c1c(-c2ccsc2)nc2c(C(=O)NCc3ccc(N4CCCC4=O)nc3)cccn12` [Compound 324]: the concentration for half-maximal inhibition (IC50) at JNK1 (setting [1]) lay in the range of 6 to 100 nM.
As for `CC(C)C[C@@H](CO)NC(=O)c1c(-c2ccsc2)nc2c(C(=O)NCc3ccc(C(=O)O)cc3)cccn12` [Compound 326], at JNK1 (setting [1]), the IC50 fell in the range of 6 to 100 nM.
In the case of `Cc1cc(C(=O)NCc2ccc3nc(N)sc3c2)c2nc(-c3ccsc3)c(C(=O)N[C@@H](CO)CC(C)C)n2c1` [Compound 350], the figures for the IC50 at JNK3 and at JNK2 were 16100 nM and 1070 to 11500 nM, respectively.
The molecule `Cc1cc(C(=O)NCc2ccc3nc(N)sc3c2)c2nc(C)c(C(=O)N[C@H](CO)CC(C)C)n2c1` [Compound 351] yielded an IC50 against JNK2 of 1070 to 11500 nM.
`CC(C)C[C@@H](CO)NC(=O)c1c(-c2cccnc2)nc2c(C(=O)NCc3ccc4nc(N)sc4c3)cccn12` [Compound 405] came in with an IC50 against JNK1 (setting [1]) of 6 to 100 nM.
Take `CCc1nc2c(C(=O)NCc3cnn(-c4ccc(C)cc4)c3)cccn2c1C(=O)O` [Compound 445]: on JNK1 (setting [1]), the half-inhibitory concentration (IC50) is 6 to 100 nM.
With `CC(C)C[C@@H](CO)NC(=O)c1c(-c2ccc(Cl)cc2)nc2c(C(=O)NCc3ccc4nc(N)sc4c3)cccn12` [Compound 453], on JNK1 (setting [1]), the IC50 was in the range of 6 to 100 nM.
Molecule `CCc1nc2c(C(=O)NCc3ccc(S(C)(=O)=O)cc3)cccn2c1C(=O)N[C@H](CO)CC(C)C` [Compound 457] came in with a half-inhibitory concentration (IC50) at JNK1 (setting [1]) of 6 to 100 nM.
Still for that read-out and setting: next, `CCc1nc2c(C(=O)NCc3ccc4[nH]ncc4c3)cccn2c1C(=O)N[C@H](CO)CC(C)C` [Compound 471]: 6 to 100 nM.
Still for that read-out and setting: next, `CCc1nc2c(C(=O)NCc3cnn(-c4ccc(S(C)(=O)=O)cc4)c3)cccn2c1C(=O)N[C@H](CO)CC(C)C` [Compound 472]: 6 to 100 nM; `CC(C)C[C@@H](CO)NC(=O)c1c(-c2ccccn2)nc2c(C(=O)NCc3ccn(-c4ccccc4)n3)cccn12` [Compound 477]: 6 to 100 nM; `Cc1nc2ccc(CNC(=O)c3cccn4c(C(=O)NC(C)C)c(-c5ccccn5)nc34)cc2[nH]1` [Compound 480]: 6 to 100 nM.
The same measure, in the same setting: the same measure for `CC(C)C[C@@H](CO)NC(=O)c1c(-c2ccccn2)nc2c(C(=O)NCc3cnc4nc(N)sc4c3)cccn12` [Compound 481]: 6 to 100 nM; for `CC(C)C[C@@H](CO)NC(=O)c1c(-c2ccccn2)nc2c(C(=O)NCc3cnn(-c4cccc(C(F)(F)F)c4)c3)cccn12` [Compound 484]: 6 to 100 nM; for `CC(C)C[C@@H](CO)NC(=O)c1c(-c2ccccn2)nc2c(C(=O)NCc3ccc(N4CCCC4=O)cc3)cccn12` [Compound 485]: 6 to 100 nM and 6 to 20 nM.
Take `CC(C)C[C@@H](CO)NC(=O)c1c(-c2ccccn2)nc2c(C(=O)NCc3ccc4occc4c3)cccn12` [Compound 489]: the IC50 against JNK1 (setting [1]) is 6 to 100 nM.
On the same count and under the same terms, the same measure for `Cc1cccc(-n2cc(CNC(=O)c3cccn4c(C(=O)N[C@H](CO)CC(C)C)c(-c5ccccn5)nc34)cn2)c1` [Compound 490]: 6 to 100 nM; for `CC(C)C[C@@H](CO)NC(=O)c1c(-c2ccccn2)nc2c(C(=O)NCc3cnn(-c4ccc(S(C)(=O)=O)cc4)c3)cccn12` [Compound 491]: 6 to 100 nM and 6 to 20 nM.
Still for that read-out and setting: next, `CC(C)C[C@@H](CO)NC(=O)c1c(-c2ccccn2)nc2c(C(=O)NCc3ccc4[nH]ncc4c3)cccn12` [Compound 502]: 6 to 100 nM and 6 to 20 nM and 6 to 10 nM; `CC(C)C[C@@H](CO)NC(=O)c1cnc2c(C(=O)NCc3ccc4nc(N)sc4c3)cccn12` [Compound 543]: 6 to 100 nM; `CC(C)C[C@@H](CO)NC(=O)c1c(-c2ccccc2F)nc2c(C(=O)NCc3ccc4nc(N)sc4c3)cccn12` [Compound 545]: 6 to 100 nM.
The same measure, in the same setting: the same measure for `COC[C@H](CC(C)C)NC(=O)c1c(-c2ccsc2)nc2c(C(=O)NCc3ccc4nc(N)sc4c3)cccn12` [Compound 593]: 6 to 100 nM.
With `Cc1nc2c(C(=O)NCc3ccc4nc(N)sc4c3)cccn2c1C(=O)N[C@H](CO)CC(C)C` [Compound 598], on JNK1 (setting [1]), the half-maximal inhibitory concentration (IC50) was 6 to 100 nM and 6 to 20 nM.
Still for that read-out and setting: next, `CC(C)C[C@@H](CO)NC(=O)c1cnc2c(C(=O)NCc3cnn(-c4ccc(S(C)(=O)=O)cc4)c3)cccn12` [Compound 629]: 6 to 20 nM and 6 to 10 nM.
As for `Cc1nc2ccc(-n3cc(CNC(=O)c4cccn5c(C(=O)N[C@H](CO)CC(C)C)cnc45)cn3)cc2n1C` [Compound 647], the half-inhibitory concentration (IC50) against JNK1 (setting [1]) was 6 to 100 nM and 6 to 20 nM; at JNK1 (read-out: JNK 1 IC50) it was 16 nM.
Take `CC(C)C[C@@H](CO)NC(=O)c1cnc2c(C(=O)NCc3cnn(-c4ccc(S(=O)(=O)N(C)C)cc4)c3)cccn12` [Compound 650]: the IC50 at JNK1 (setting [1]) was 6 to 100 nM and 6 to 20 nM.
Take `CC(C)CC(CO)NC(=O)c1cnc2c(C(=O)NCc3cnn(-c4ccc(S(=O)(=O)N(C)C)c(Cl)c4)c3)cccn12` (stereo not shown) [Compound 651]: the IC50 at JNK1 (setting [1]) is 6 to 100 nM and 6 to 20 nM and 6 to 10 nM; at JNK1 (read-out: JNK 1 IC50), 10 nM.
On to `CC(C)C[C@@H](CO)NC(=O)c1cnc2c(C(=O)NCc3cnn(-c4ccc(S(=O)(=O)N(C)C)c(F)c4)c3)cccn12` [Compound 652], for which the IC50 against JNK1 (setting [1]) was 6 to 100 nM and 6 to 20 nM and 6 to 10 nM; at JNK1 (read-out: JNK 1 IC50) it was 11 nM.
At JNK1 (setting [1]), `CC(C)C[C@@H](CO)NC(=O)c1c(-c2ccsc2)nc2c(NC(=O)Cc3ccc4c(c3)OCO4)cccn12` [Compound 664] showed an IC50 of 6 to 100 nM.

The values are drawn from patent publication US20100298314A1, “NOVEL JNK INHIBITORS” (Schering Corporation, priority 2006, published 2010).
